# Paper PMC11981937 (Nature, 2025)
# Several values for one entry are separate records, joined by “and”; a condition that tells them apart may be missing. Equal values may be shown once. Read-outs that look alike come from different tables or passages of the source.
# Legend:
# SARS-CoV-2 B1 = format: in vivo, Syrian golden hamster; conditions: pre-exposure; for Histopathology score, individual animal / Infectious virus in the lung (TCID50/mg), Log 10, individual animal / Infectious virus in the lung, individual animal / Viral load (viral RNA) in the lung, Copy number, individual animal / Viral load (viral RNA) in the lung, Log 10, individual animal: listed as 87009676-AAA
# [1] = Post-exposure Syrian golden hamster model, body weight; conditions: in vivo, 75 mg/kg
# in vivo [2] = conditions: rat
# in vivo [3] = conditions: cynomolgus monkey
# in vitro [4] = conditions: human
# in vitro [5] = conditions: human; remark: listed apart in the source
# in vitro [6] = conditions: African green monkey
smiles,measurement,setting,value
"C[C@H]1Cn2ncc(C(=O)Nc3cccc(C#N)c3)c2C(=O)N1c1ccc(C(F)(F)c2ccccc2)cc1 [JNJ-9676, (S)-N-(3-cyanophenyl)-5-(4-(difluoro(phenyl)methyl)phenyl)-6-methyl-4-oxo-4,5,6,7-tetrahydropyrazolo[1,5-a]pyrazine-3-carboxamide]","Histopathology score, individual animal","SARS-CoV-2 B1; 25 mg/kg BID, 25 mg/kg",1.5 and 1
same,"Infectious virus in the lung (TCID50/mg), Log 10, individual animal","SARS-CoV-2 B1; 25 mg/kg BID, 25 mg/kg",-2.00 Log 10 and 4.24 Log 10 and 2.52 Log 10 and 1.28 Log 10
same,"Infectious virus in the lung, individual animal","SARS-CoV-2 B1; 25 mg/kg BID, 25 mg/kg",0.01 TCID50/mg and 17417.65 TCID50/mg and 328.03 TCID50/mg and 19.08 TCID50/mg
same,"Viral load (viral RNA) in the lung, Copy number, individual animal","SARS-CoV-2 B1; 25 mg/kg BID, 25 mg/kg",7.91E+09 and 1.46E+09 and 1.22E+09 and 1.99E+09 and 7.25E+09
same,"Viral load (viral RNA) in the lung, Log 10, individual animal","SARS-CoV-2 B1; 25 mg/kg BID, 25 mg/kg",9.90 Log 10 and 9.16 Log 10 and 9.08 Log 10 and 9.30 Log 10 and 9.86 Log 10
same,cumulative histopathological lung score (in words),SARS-CoV-2 B1; 75 mg per kg BID,significantly reduced
same,"Histopathology score, average","SARS-CoV-2 B1; 75 mg/kg BID, n=5",1.20
same,"Histopathology score, median","SARS-CoV-2 B1; 75 mg/kg BID, n=5",1.00
same,"Infectious virus in the lung (TCID50/mg), average Log 10","SARS-CoV-2 B1; 75 mg/kg BID, n=5",1.08 Log 10
same,"Infectious virus in the lung (TCID50/mg), median Log 10","SARS-CoV-2 B1; 75 mg/kg BID, n=5",2.38 Log 10
same,"Viral load (viral RNA) in the lung, average Log 10","SARS-CoV-2 B1; 75 mg/kg BID, n=5",4.57 Log 10
same,"Viral load (viral RNA) in the lung, median Log 10","SARS-CoV-2 B1; 75 mg/kg BID, n=5",3.13 Log 10
same,"Histopathology score, individual animal","SARS-CoV-2 B1; 75 mg/kg BID, 75 mg/kg",1 and 1.5
same,"Infectious virus in the lung (TCID50/mg), Log 10, individual animal","SARS-CoV-2 B1; 75 mg/kg BID, 75 mg/kg",-2.00 Log 10 and 3.24 Log 10 and 3.78 Log 10 and 2.38 Log 10
same,"Infectious virus in the lung, individual animal","SARS-CoV-2 B1; 75 mg/kg BID, 75 mg/kg",0.01 TCID50/mg and 1756.82 TCID50/mg and 5984.59 TCID50/mg and 240.02 TCID50/mg
same,"Viral load (viral RNA) in the lung, Copy number, individual animal","SARS-CoV-2 B1; 75 mg/kg BID, 75 mg/kg",4.93E+02 and 1.36E+03 and 1.66E+06 and 2.19E+08 and 2.75E+02
same,"Viral load (viral RNA) in the lung, Log 10, individual animal","SARS-CoV-2 B1; 75 mg/kg BID, 75 mg/kg",2.69 Log 10 and 3.13 Log 10 and 6.22 Log 10 and 8.34 Log 10 and 2.44 Log 10
same,"Infectious virus in the lung, reduction relative to vehicle","SARS-CoV-2 B1; 8.33 mpk BID, 8.33 mg/kg",0.50 (p>0.05) log10 TCID50/mg lung and 0.50 (p>0.05) log10 TCID50/mg lung
same,"Viral load in the lung, reduction relative to vehicle","SARS-CoV-2 B1; 8.33 mpk BID, 8.33 mg/kg",2.01 (p>0.05) log10 copies/mg lung and 2.01 (p>0.05) log10 copies/mg lung
same,"Infectious virus in the lung, reduction relative to vehicle","SARS-CoV-2 B1; 25 mpk BID, 25 mg/kg",4.41 (p=0.02) log10 TCID50/mg lung and 4.41 (p=0.02) log10 TCID50/mg lung
same,"Viral load in the lung, reduction relative to vehicle","SARS-CoV-2 B1; 25 mpk BID, 25 mg/kg",3.51 (p=0.0003 log10 copies/mg lung and 3.51 (p=0.0003) log10 copies/mg lung
same,"Infectious virus in the lung, reduction relative to vehicle","SARS-CoV-2 B1; 75 mpk BID, 75 mg/kg",4.14 (p=0.03) log10 TCID50/mg lung and 4.14 (p=0.03) log10 TCID50/mg lung
same,"Viral load in the lung, reduction relative to vehicle","SARS-CoV-2 B1; 75 mpk BID, 75 mg/kg",3.01 (p=0.0019) log10 copies/mg lung and 3.01 (p=0.0019) log10 copies/mg lung
same,Average body weight change (%) on day 4 compared to day 0,[1],-0.615% and -5.840% and -3.968%
same,Vd,in vivo [2],8.4 L/kg
same,clearance,in vivo [2],5.2 mL/min/kg
same,half-life,in vivo [2],19 h
same,bioavailability,in vivo [2]; po,> 70%
same,Vd,in vivo [3],5.1 L/kg
same,clearance,in vivo [3],1.9 mL/min/kg
same,half-life,in vivo [3],35 h
same,bioavailability,in vivo [3]; po,> 30%
same,CC50,in vitro [4]; Median CC50,> 20 µM
same,CC50,"in vitro [4]; Median CC50, Huh7, line of MHV, N=2",> 20 µM
same,CC50,"in vitro [4]; Median CC50, Huh7, line of PDCoV, N=2",> 30 µM
same,CC50 at 6 days,in vitro [5],> 50 µM
same,CC50,in vitro [6],> 50 µM
